Measured values published in ChEMBL document CHEMBL3045909, “Synthesis and antitumor studies of novel benzopyrano-1,2,3-selenadiazole and spiro[benzopyrano]-1,3,4-thiadiazoline derivatives” (Med Chem Res, 2013).
pIC50: −log10 of the molar value. The source made the active and inactive calls. The calls are words filed in the database; no cut-off is given here.

How the values were obtained:
[1] = system: HepG2; assay: Cytotoxicity against Homo sapiens (human) HepG2 cells assessed as inhibition of cell survival after 96 hr; assay type: functional, cell-based; conditions: HepG2, 96 h
[2] = system: Vero; assay: Cytotoxicity against Chlorocebus aethiops (African green monkey) Vero cells assessed as inhibition of cell survival after 96 hr; assay type: functional, cell-based; conditions: Chlorocebus sabaeus
[3] = system: WI-38; assay: Cytotoxicity against Homo sapiens (human) WI38 cells assessed as inhibition of cell survival after 96 hr; assay type: functional, cell-based; conditions: WI-38, 96 h
[4] = system: MCF7; assay: Cytotoxicity against Homo sapiens (human) MCF7 cells assessed as inhibition of cell survival after 96 hr; assay type: functional, cell-based; conditions: MCF7, 96 h
[5] = system: Mus musculus; assay: Neurotoxicity in Ehrlich ascites carcinoma xenografted Swiss albino Mus musculus (mouse) assessed as effect on tremor, twitch, jumping, drowsy at >500 mg/kg, ip qd for 9 days administered at 24 hr after tumour cell inoculation; assay type: toxicity, organism-based; conditions: in vivo
[6] = Antitumor activity against Ehrlich ascites carcinoma cells xenografted in Swiss albino Mus musculus (mouse) assessed as increase in lifespan at 20 mg/kg, ip qd for 9 days administered at 24 hr after tumour cell inoculation; assay type: functional; conditions: route intraperitoneal
[7] = Antitumor activity against Ehrlich ascites carcinoma cells xenografted in Swiss albino Mus musculus (mouse) assessed as carcinoma cell viability at 20 mg/kg, ip qd for 5 days administered at 24 hr after tumour cell inoculation by trypan blue assay (reference value: 220x10^6/ml); assay type: functional; conditions: route intraperitoneal
[8] = system: Ehrlich; assay: Antitumor activity against Ehrlich ascites carcinoma cells xenografted in Swiss albino Mus musculus (mouse) assessed as decrease in abdominal ascites at 20 mg/kg, ip qd for 9 days administered at 24 hr after tumour cell inoculation; assay type: functional, organism-based; set-up: dose 20 mg/kg
[9] = Antitumor activity against Ehrlich ascites carcinoma cells xenografted in Swiss albino Mus musculus (mouse) assessed as mean survival time at 20 mg/kg, ip qd for 9 days administered at 24 hr after tumour cell inoculation (reference value: 9.10/day); assay type: functional; conditions: route intraperitoneal
[10] = system: Mus musculus; assay: Increase in hematocrit content in Ehrlich ascites carcinoma xenografted Swiss albino Mus musculus (mouse) blood at 20 mg/kg, ip qd for 9 days administered at 24 hr after tumour cell inoculation measured on day 14 post-tumor cell implantation (reference value: 35.50%); assay type: functional; conditions: route intraperitoneal
[11] = system: Mus musculus; assay: Increase in hemoglobin content in Ehrlich ascites carcinoma xenografted Swiss albino Mus musculus (mouse) blood at 20 mg/kg, ip qd for 9 days administered at 24 hr after tumour cell inoculation measured on day 14 post-tumor cell implantation (reference value: 8.70 g/dl); assay type: functional; conditions: route intraperitoneal
[12] = Acute toxicity in ip dosed Ehrlich ascites carcinoma xenografted Swiss albino Mus musculus (mouse) assessed as mortality administered once a day for 9 days at 24 hr after tumour cell inoculation; assay type: organism-based; conditions: in vivo
[13] = system: Ehrlich; assay: Antitumor activity against Ehrlich ascites carcinoma cells xenografted in Swiss albino Mus musculus (mouse) assessed as decrease in abdominal ascites at 50 mg/kg, ip qd for 9 days administered at 24 hr after tumour cell inoculation; assay type: functional, organism-based; set-up: dose 50 mg/kg
[14] = system: Ehrlich; assay: Antitumor activity against Ehrlich ascites carcinoma cells xenografted in Swiss albino Mus musculus (mouse) assessed as decrease in tumour size at 50 mg/kg, ip qd for 9 days administered at 24 hr after tumour cell inoculation; assay type: functional, organism-based; set-up: dose 50 mg/kg
[15] = system: Mus musculus; assay: Acute toxicity in Ehrlich ascites carcinoma xenografted Swiss albino Mus musculus (mouse) assessed as decrease in locomotor activity at >500 mg/kg, ip qd for 9 days administered at 24 hr after tumour cell inoculation; assay type: organism-based; conditions: in vivo
[16] = system: Ehrlich; assay: Antitumor activity against Ehrlich ascites carcinoma cells xenografted in Swiss albino Mus musculus (mouse) assessed as decrease in tumour size at 20 mg/kg, ip qd for 9 days administered at 24 hr after tumour cell inoculation; assay type: functional, organism-based; set-up: dose 20 mg/kg
[17] = Antitumor activity against Ehrlich ascites carcinoma cells xenografted in Swiss albino Mus musculus (mouse) assessed as mean survival time at 50 mg/kg, ip qd for 9 days administered at 24 hr after tumour cell inoculation (reference value: 9.10/day); assay type: functional; conditions: route intraperitoneal
[18] = Antitumor activity against Ehrlich ascites carcinoma cells xenografted in Swiss albino Mus musculus (mouse) assessed as carcinoma cell viability at 50 mg/kg, ip qd for 5 days administered at 24 hr after tumour cell inoculation by trypan blue assay (reference value: 220x10^6/ml); assay type: functional; conditions: route intraperitoneal
[19] = Antitumor activity against Ehrlich ascites carcinoma cells xenografted in Swiss albino Mus musculus (mouse) assessed as increase in lifespan at 50 mg/kg, ip qd for 9 days administered at 24 hr after tumour cell inoculation; assay type: functional; conditions: route intraperitoneal
[20] = system: Mus musculus; assay: Increase in hematocrit content in Ehrlich ascites carcinoma xenografted Swiss albino Mus musculus (mouse) blood at 50 mg/kg, ip qd for 9 days administered at 24 hr after tumour cell inoculation measured on day 14 post-tumor cell implantation (reference value: 35.50%); assay type: functional; conditions: route intraperitoneal
[21] = system: Mus musculus; assay: Increase in hemoglobin content in Ehrlich ascites carcinoma xenografted Swiss albino Mus musculus (mouse) blood at 50 mg/kg, ip qd for 9 days administered at 24 hr after tumour cell inoculation measured on day 14 post-tumor cell implantation (reference value: 8.70 g/dl); assay type: functional; conditions: route intraperitoneal

CC1(C)CC(=O)c2cc(O)ccc2O1
pIC50 [1]: 3.32 | pIC50 [2]: 3.38 | pIC50 [3]: 3.37 | pIC50 [4]: 3.39

CC(=O)NC1=NN(C(C)=O)C2(CC(C)(C)Oc3ccc(OC(C)=O)cc32)S1 (stereo not drawn)
Activity [5]: Non-toxic | Activity [6]: 98.9% | pIC50 [1]: 4.52 | Activity [7]: 110 ×10⁶ /ml | inhibition [8]: Active | MST [9]: 18.1 days | Activity [10]: 45% | pIC50 [2]: 4.52 | Activity [11]: 11.9 g/dL | pIC50 [3]: 4.52 | pIC50 [4]: 4.52 | LD50 at 9 days [12]: 248 mg/kg | inhibition [13]: Active | inhibition [14]: Active | Activity [15]: Toxic | inhibition [16]: Active

O=C1CC2(CCCCCC2)Oc2ccc(O)cc21
pIC50 [1]: 2.84 | pIC50 [2]: 2.88 | pIC50 [3]: 2.84 | pIC50 [4]: 2.82

CCC1(C)CC(=O)c2cc(O)ccc2O1 (stereo not drawn)
pIC50 [1]: 3.82 | pIC50 [2]: 3.82 | pIC50 [3]: 3.82 | pIC50 [4]: 3.82

NC(=S)N/N=C1\CC2(CCCCCC2)Oc2ccc(O)cc21
pIC50 [1]: 2.84 | pIC50 [2]: 2.84 | pIC50 [3]: 2.82 | pIC50 [4]: 2.79

O=C1CC2(CCCC2)Oc2ccc(O)cc21
pIC50 [1]: 3.34 | pIC50 [2]: 3.13 | pIC50 [3]: 3.29 | pIC50 [4]: 3.19

CC1(C)C/C(=N\NC(N)=O)c2cc(O)ccc2O1
pIC50 [1]: 3.92 | pIC50 [2]: 3.77 | pIC50 [3]: 3.85 | pIC50 [4]: 3.82

NC(=O)N/N=C1\CC2(CCCC2)Oc2ccc(O)cc21
pIC50 [1]: 4.00 | pIC50 [2]: 4.05 | pIC50 [3]: 4.00 | pIC50 [4]: 3.96

NC(=O)N/N=C1\CC2(CCCCC2)Oc2ccc(O)cc21
pIC50 [1]: 3.82 | pIC50 [2]: 4.10 | pIC50 [3]: 3.80 | pIC50 [4]: 4.15

O=C1CC2(CCCCC2)Oc2ccc(O)cc21
pIC50 [1]: 3.72 | pIC50 [2]: 4.05 | pIC50 [3]: 3.68 | pIC50 [4]: 4.05

CC(=O)NC1=NN(C(C)=O)C2(CC3(CCCC3)Oc3ccc(OC(C)=O)cc32)S1 (stereo not drawn)
pIC50 [1]: 4.30 | pIC50 [2]: 4.40 | pIC50 [3]: 4.40 | pIC50 [4]: 4.30

CC1(C)Oc2ccc(O)cc2-c2nn[se]c21
pIC50 [1]: 4.22 | pIC50 [2]: 4.30 | pIC50 [3]: 4.15 | pIC50 [4]: 4.22

CCC1(C)Oc2ccc(O)cc2-c2nn[se]c21 (stereo not drawn)
Activity [5]: Non-toxic | Activity [6]: 73.63% | pIC50 [1]: 4.30 | Activity [7]: 107 ×10⁶ /ml | inhibition [8]: Active | MST [9]: 15.8 days | Activity [10]: 43.7% | pIC50 [2]: 4.22 | Activity [11]: 10.5 g/dL | pIC50 [3]: 4.30 | pIC50 [4]: 4.22 | LD50 at 9 days [12]: 247 mg/kg | inhibition [13]: Active | inhibition [14]: Active | Activity [15]: Toxic | inhibition [16]: Active

NC(=O)N/N=C1\CC2(CCCCCC2)Oc2ccc(O)cc21
pIC50 [1]: 2.95 | pIC50 [2]: 2.95 | pIC50 [3]: 2.95 | pIC50 [4]: 2.95

Oc1ccc2c(c1)-c1nn[se]c1C1(CCCC1)O2
pIC50 [1]: 4.22 | pIC50 [2]: 4.22 | pIC50 [3]: 4.15 | pIC50 [4]: 4.22

NC(=S)N/N=C1\CC2(CCCC2)Oc2ccc(O)cc21
pIC50 [1]: 4.00 | pIC50 [2]: 4.05 | pIC50 [3]: 4.00 | pIC50 [4]: 4.00

CC(=O)NC1=NN(C(C)=O)C2(CC3(CCCCC3)Oc3ccc(OC(C)=O)cc32)S1 (stereo not drawn)
pIC50 [1]: 4.15 | pIC50 [2]: 4.10 | pIC50 [3]: 4.10 | pIC50 [4]: 4.10

O=c1[nH]cc(F)c(=O)[nH]1 [FLUOROURACIL]
pIC50 [1]: 4.15 | MST [17]: 15.7 days | pIC50 [3]: 4.70 | Activity [18]: 123 ×10⁶ /ml | Activity [19]: 72.53% | pIC50 [4]: 4.70 | Activity [20]: 42.3% | Activity [21]: 10 g/dL

CCC1(C)CC2(SC(NC(C)=O)=NN2C(C)=O)c2cc(OC(C)=O)ccc2O1 (stereo not drawn)
pIC50 [1]: 3.21 | pIC50 [2]: 3.20 | pIC50 [3]: 3.08 | pIC50 [4]: 3.00

CC1(C)C/C(=N\NC(N)=S)c2cc(O)ccc2O1
pIC50 [1]: 3.85 | pIC50 [2]: 3.82 | pIC50 [3]: 3.92 | pIC50 [4]: 3.85

CCC1(C)C/C(=N\NC(N)=O)c2cc(O)ccc2O1 (stereo not drawn)
pIC50 [1]: 4.22 | pIC50 [2]: 4.30 | pIC50 [3]: 4.15 | pIC50 [4]: 4.15

NC(=S)N/N=C1\CC2(CCCCC2)Oc2ccc(O)cc21
pIC50 [1]: 3.09 | pIC50 [2]: 3.08 | pIC50 [3]: 2.95 | pIC50 [4]: 2.87

Oc1ccc2c(c1)-c1nn[se]c1C1(CCCCC1)O2
pIC50 [1]: 4.05 | pIC50 [2]: 4.00 | pIC50 [3]: 3.96 | pIC50 [4]: 3.92

CCC1(C)C/C(=N\NC(N)=S)c2cc(O)ccc2O1 (stereo not drawn)
pIC50 [1]: 4.22 | pIC50 [2]: 4.22 | pIC50 [3]: 4.22 | pIC50 [4]: 4.22

Oc1ccc2c(c1)-c1nn[se]c1C1(CCCCCC1)O2
pIC50 [1]: 2.94 | pIC50 [2]: 2.92 | pIC50 [3]: 2.79 | pIC50 [4]: 2.83
